# Laboratory results reported in patent US20080038277A1, “Dna Pkinase Inhibitors For Treating Cancer And Diabetes” (priority 2004, published 2008).
# Experiments:
# PKB = settings: cisplatin treatment (ref. 32); cited from earlier work
# DNA-PK = settings: through proteolytic degradation of DNA-PK (ref. 31); cited from earlier work
# S473K1 = molecular target: T1, S473K1 (Homo sapiens, UniProt P78527); assay: S473K1 (Mono Q fraction 27) kinase assay with FSY peptide plus DNA, or GST-PKBα419-480 and pS473 Western blot; format: biochemical; settings: LY294002 5 μM, wortmannin 2 μM, staurosporine 5 μM; FSY peptide in presence of DNA and GST-PKBα419-480 (FIGS. 1E and F)
# T1 construct: purification and identification of this kinase from HEK293 cells; endogenous in cells; host or cells: HEK293 crude membrane fraction, purified over Q-Sepharose, Mono S and Mono Q
# Protocol: FIG. 1. Identification and purification of S473K. (A-C) Mono Q fractions were assayed for S473K activity with the FSY (solid) or FAY peptides (open) in the presence (triangles) or absence (circles) of DNA. […] (B) A 10-μl aliquot of each fraction was subjected to 8% SDS-PAGE and proteins visualized by Coomassie Blue staining. (C) Western blotting of fractions with anti-DNA-PKcs and anti-Ku80/Ku70 antibodies. (D) Recombinant ΔPH-PKBαT309P (PKB) was first incubated with S473K1 (5 μl), 10 μg/ml fetal calf thymus DNA, and 100 μM ATP in kinase buffer for different times. Aliquots of the reaction mixture were removed for assay of PKB activity as described in (11) or for Western blotting with pS473 and pT308 phospho-specific antibodies. […].
# All steps were performed at 4° C. Four hundred plates (Ø […]) of HEK293 cells were harvested in ice-cold phosphate-buffered saline and homogenized in ice-cold buffer A (50 mM Tris-HCl pH 7.4, 300 mM sucrose, 1 mM dithiothreitol, 10 mM sodium fluoride, 0.1 mM sodium orthovanadate, 20 nM okadiac acid, 1 mM phenylmethanesulfonyl fluoride and 1 mM benzamidine) using a polytron homogenizer. The nuclear fraction was removed by centrifuging at 1000 g for 10 min and the resulting supernatant was further centrifuged at 100,000 g for 60 min. […]
# purified DNA-PK = molecular target: T2, purified DNA-PK (Homo sapiens, UniProt P78527); assay: Purified DNA-PK phosphorylation of PKB (FSY peptide / GST-PKBα419-480); format: biochemical; settings: FSY peptide and GST-PKBα419-480; staurosporine 5 μM (FIGS. 2A and B)
# T2 construct: purified DNA-PK (from HeLa cells and human placenta) was tested; purchased Promega; host or cells: HeLa cells and human placenta
# Protocol: FIG. 2. DNA-PK phosphorylates and activates PKB in vitro. (A) Purified DNA-PK (Promega) (25 units) was assayed with 0.1 mg/ml of FSY, FAY and DNA-PK p53 substrate peptide (CTL) in the presence (+) or absence (−) of DNA. […]; aliquots of the reaction mixture were removed for assay of PKB activity as described in FIG. 1D or for Western blotting with pS473 and pT308 phospho-specific antibodies. (D) GST-PKBα419-480 and His-p53 (each 1 μg) were incubated with 25 units of purified DNA-PK and 100 μM [γ-32P]ATP in kinase buffer (11). The reactions were terminated and analyzed on 10% SDS-PAGE followed by autoradiography or 32P determination in excised gel slices.
# An antibody specific for PKB phosphorylated on Thr-308 (pT308) was purchased from Cell Signaling Technologies. An antibody specific for PKB phosphorylated on Ser-473 (pS473) was produced and purified as previously described (33). Polyclonal anti-PKB antibody (antibody10) (34) and monoclonal anti-PKB (A4D6) (35) have been described previously. Anti-Ku80, and anti-Ku 70 antibodies were purchased from Transduction Labs. Anti-DNA-PKcs (monoclonal G4) was from Santa Cruz Inc. Double-stranded fetal calf thymus DNA was from Sigma, and purified human DNA-PK protein and p53 substrate peptide […] (36) from Promega. […]
# T1 sequence (P78527 whole entry, one chain of several): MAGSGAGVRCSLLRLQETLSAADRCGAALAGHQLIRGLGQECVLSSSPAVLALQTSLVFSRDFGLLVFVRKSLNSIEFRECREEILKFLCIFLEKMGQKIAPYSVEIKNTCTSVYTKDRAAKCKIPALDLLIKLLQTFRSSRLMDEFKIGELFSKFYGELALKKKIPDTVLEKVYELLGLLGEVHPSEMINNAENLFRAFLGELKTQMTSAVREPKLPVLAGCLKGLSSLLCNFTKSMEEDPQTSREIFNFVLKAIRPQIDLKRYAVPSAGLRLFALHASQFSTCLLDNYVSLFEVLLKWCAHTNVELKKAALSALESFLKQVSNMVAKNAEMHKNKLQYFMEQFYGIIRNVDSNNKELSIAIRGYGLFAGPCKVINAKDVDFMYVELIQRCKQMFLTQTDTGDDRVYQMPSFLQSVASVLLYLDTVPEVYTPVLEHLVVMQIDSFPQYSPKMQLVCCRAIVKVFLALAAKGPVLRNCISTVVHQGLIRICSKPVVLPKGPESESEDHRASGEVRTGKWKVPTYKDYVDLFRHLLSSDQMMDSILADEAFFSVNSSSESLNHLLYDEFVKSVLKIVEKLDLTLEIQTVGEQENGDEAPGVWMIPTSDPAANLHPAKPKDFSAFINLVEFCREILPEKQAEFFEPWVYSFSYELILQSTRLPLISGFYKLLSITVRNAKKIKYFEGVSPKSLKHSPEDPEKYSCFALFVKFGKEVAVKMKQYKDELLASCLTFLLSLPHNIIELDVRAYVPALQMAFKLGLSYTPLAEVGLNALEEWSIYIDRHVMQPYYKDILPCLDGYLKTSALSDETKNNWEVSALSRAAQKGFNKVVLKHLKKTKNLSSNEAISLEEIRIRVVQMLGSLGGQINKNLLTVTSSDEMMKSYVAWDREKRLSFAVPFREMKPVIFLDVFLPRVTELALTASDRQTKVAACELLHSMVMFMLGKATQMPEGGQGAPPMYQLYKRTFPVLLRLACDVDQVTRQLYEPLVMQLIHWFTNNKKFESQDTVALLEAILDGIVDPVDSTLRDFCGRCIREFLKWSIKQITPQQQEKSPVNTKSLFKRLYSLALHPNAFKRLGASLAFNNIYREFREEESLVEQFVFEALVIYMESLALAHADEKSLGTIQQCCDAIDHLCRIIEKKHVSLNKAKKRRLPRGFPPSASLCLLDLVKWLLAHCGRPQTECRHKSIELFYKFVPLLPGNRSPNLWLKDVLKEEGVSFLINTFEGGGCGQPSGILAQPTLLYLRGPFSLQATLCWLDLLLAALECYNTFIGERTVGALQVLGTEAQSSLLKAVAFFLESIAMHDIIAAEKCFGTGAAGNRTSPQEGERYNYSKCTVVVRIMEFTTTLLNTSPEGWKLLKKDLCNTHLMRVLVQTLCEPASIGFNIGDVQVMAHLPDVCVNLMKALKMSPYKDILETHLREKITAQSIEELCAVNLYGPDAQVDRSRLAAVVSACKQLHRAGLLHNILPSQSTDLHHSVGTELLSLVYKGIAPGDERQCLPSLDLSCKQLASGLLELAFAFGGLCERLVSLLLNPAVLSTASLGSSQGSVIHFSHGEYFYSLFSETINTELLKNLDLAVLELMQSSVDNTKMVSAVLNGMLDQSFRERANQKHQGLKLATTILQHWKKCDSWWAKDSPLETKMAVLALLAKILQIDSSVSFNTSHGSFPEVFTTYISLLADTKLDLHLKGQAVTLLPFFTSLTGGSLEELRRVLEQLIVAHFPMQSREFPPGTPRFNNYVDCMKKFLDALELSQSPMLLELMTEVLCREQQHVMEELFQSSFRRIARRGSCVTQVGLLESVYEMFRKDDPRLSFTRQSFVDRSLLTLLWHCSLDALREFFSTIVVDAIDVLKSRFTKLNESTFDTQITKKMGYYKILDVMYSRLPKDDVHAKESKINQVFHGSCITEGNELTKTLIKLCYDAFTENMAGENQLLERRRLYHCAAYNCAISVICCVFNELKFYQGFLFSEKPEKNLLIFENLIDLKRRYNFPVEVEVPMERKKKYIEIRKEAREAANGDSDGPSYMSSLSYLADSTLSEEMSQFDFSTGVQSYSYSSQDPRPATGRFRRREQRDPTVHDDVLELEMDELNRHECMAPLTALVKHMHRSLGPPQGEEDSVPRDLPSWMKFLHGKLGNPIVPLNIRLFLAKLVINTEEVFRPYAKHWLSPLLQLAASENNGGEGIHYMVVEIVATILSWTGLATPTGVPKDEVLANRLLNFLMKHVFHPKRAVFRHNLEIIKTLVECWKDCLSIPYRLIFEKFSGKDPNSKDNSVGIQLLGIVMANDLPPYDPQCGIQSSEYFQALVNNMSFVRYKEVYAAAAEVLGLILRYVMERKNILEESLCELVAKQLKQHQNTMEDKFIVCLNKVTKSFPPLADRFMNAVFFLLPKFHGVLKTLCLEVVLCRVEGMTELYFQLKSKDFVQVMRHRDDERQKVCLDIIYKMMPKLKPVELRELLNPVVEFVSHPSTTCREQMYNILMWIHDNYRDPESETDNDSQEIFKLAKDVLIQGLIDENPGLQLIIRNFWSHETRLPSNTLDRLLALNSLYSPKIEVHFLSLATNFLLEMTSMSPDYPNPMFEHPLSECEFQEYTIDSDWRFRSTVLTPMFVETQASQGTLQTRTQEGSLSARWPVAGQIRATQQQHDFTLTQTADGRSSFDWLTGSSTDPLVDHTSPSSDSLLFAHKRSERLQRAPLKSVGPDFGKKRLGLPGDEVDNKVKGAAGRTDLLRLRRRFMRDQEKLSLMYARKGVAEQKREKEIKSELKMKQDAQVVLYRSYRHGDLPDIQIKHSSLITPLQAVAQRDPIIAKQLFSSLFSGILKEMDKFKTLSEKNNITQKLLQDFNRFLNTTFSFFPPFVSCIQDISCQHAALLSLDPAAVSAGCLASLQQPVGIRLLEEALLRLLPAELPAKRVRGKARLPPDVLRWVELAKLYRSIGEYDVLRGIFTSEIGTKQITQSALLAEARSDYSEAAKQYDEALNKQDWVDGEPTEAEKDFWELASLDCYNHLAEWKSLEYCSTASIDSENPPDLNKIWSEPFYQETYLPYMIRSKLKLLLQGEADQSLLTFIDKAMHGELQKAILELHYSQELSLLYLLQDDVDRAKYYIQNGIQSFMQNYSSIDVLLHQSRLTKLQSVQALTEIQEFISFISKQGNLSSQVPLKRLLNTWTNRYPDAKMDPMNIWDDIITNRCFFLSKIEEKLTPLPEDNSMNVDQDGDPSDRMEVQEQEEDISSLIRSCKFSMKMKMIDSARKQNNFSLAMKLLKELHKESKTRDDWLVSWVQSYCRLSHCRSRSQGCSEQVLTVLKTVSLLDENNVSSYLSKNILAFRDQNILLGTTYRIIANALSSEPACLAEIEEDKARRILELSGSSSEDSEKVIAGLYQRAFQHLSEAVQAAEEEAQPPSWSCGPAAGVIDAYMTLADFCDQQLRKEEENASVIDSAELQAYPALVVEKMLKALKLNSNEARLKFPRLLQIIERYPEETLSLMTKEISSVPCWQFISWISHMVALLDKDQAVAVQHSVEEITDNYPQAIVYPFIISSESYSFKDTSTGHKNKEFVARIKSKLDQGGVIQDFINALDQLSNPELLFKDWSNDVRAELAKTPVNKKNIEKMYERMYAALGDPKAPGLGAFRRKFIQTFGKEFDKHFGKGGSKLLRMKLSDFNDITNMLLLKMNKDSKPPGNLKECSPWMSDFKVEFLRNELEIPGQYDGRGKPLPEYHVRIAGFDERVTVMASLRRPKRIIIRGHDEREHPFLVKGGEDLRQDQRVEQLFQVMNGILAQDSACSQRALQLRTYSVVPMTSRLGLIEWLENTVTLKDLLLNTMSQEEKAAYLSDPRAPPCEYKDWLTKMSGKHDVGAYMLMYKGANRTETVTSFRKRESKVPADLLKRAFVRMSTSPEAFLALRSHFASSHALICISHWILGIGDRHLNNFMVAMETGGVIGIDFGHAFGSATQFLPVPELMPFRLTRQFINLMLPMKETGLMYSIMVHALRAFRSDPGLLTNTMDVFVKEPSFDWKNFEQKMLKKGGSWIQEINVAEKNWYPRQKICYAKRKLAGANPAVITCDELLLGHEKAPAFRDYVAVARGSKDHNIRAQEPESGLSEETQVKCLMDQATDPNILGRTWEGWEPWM
Structure (SMILES),PKB activity and Ser-473 phosphorylation (PKB),DNA-PK activity (DNA-PK),S473K1 activity (S473K1),phosphorylation of PKB catalyzed by purified DNA-PK (purified DNA-PK)
N.N.[Cl][Pt][Cl] [cisplatin],inhibited,decrease,–,–
CN[C@@H]1C[C@H]2O[C@@](C)([C@@H]1OC)n1c3ccccc3c3c4c(c5c6ccccc6n2c5c31)C(=O)NC4 [staurosporine],–,–,not affected,resistant
